Test results taken from PubChem BioAssay (NCI).
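Following 48 hours of exposure in 96-well plates, responses at five concentrations were used to interpolate endpoints linearly. Here, GI50 denotes the concentration required for 50% inhibition of growth. At the TGI there is no net growth.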

Tests used:
Assay in all cases: NCI anticancer screen, dose series, 48 h
T-47D breast = tested on: T-47D breast
U251 CNS = tested on: U251 CNS
SW-620 colon = tested on: SW-620 colon
RXF 393 renal = tested on: RXF 393 renal
SN12C renal = tested on: SN12C renal
SNB-19 CNS = tested on: SNB-19 CNS
NCI-H522 lung = tested on: NCI-H522 lung
SK-MEL-2 melanoma = tested on: SK-MEL-2 melanoma
OVCAR-8 ovarian = tested on: OVCAR-8 ovarian
SR leukemia = tested on: SR leukemia

SMILES	TGI (T-47D breast)	TGI (U251 CNS)	TGI (SW-620 colon)	TGI (RXF 393 renal)	TGI (SN12C renal)	TGI (SNB-19 CNS)	TGI (NCI-H522 lung)	TGI (SK-MEL-2 melanoma)	TGI (OVCAR-8 ovarian)	TGI (SR leukemia)	GI50 (SR leukemia)	GI50 (T-47D breast)	GI50 (SW-620 colon)	GI50 (RXF 393 renal)	GI50 (SN12C renal)	GI50 (SNB-19 CNS)	GI50 (NCI-H522 lung)	GI50 (SK-MEL-2 melanoma)	GI50 (OVCAR-8 ovarian)
Cc1cc2c(O)c(c1)CN(CC(=O)O)Cc1cc(C)cc(c1O)CN(CC(=O)O)Cc1cc(C)cc(c1O)CN(CC(=O)O)C2	> 100 µM	> 100 µM	> 100 µM	> 100 µM	> 100 µM	> 100 µM	> 100 µM	> 100 µM	> 100 µM	> 100 µM	–	–	–	–	–	–	–	–	–
COc1ccc(Nc2nc(N)c(C(=O)c3c[nH]c4ccccc34)s2)cc1	> 88.3 µM	> 100 µM	> 100 µM	11.4 µM	> 100 µM	> 100 µM	–	> 72.5 µM	> 100 µM	0.796 µM	–	–	–	–	–	–	–	–	–
O=C1C=CC(=O)c2c(O)c(N3CCC[C@H]3CO)c(Cl)c(O)c21	4.57 µM	> 10 µM	3.51 µM	3.46 µM	3.2 µM	> 10 µM	0.939 µM	5.53 µM	> 6.11 µM	1.4 µM	–	–	–	–	–	–	–	–	–
O=C1NC2CCCCC2N=C1CC(=O)c1ccc(Br)cc1 (configuration not stated)	> 100 µM	> 100 µM	> 100 µM	> 100 µM	> 100 µM	> 100 µM	> 100 µM	> 100 µM	19.8 µM	> 100 µM	–	–	–	–	–	–	–	–	–
COc1cccc2c1C(=O)c1c(O)c3c(c(O)c1C2=O)C[C@H](O)C[C@@H]3OC1CC(N)C(O)C(C)O1 (some centres not stated)	15.3 µM	–	–	25 µM	–	15.2 µM	5.86 µM	5.41 µM	3.64 µM	0.229 µM	–	–	–	–	–	–	–	–	–
CCC(CO)Nc1nc(NCc2ccccc2)c2ncn(C(C)C)c2n1 (configuration not stated)	> 100 µM	> 100 µM	> 79 µM	20.9 µM	> 100 µM	> 100 µM	55.4 µM	38.9 µM	57.5 µM	19 µM	–	–	–	–	–	–	–	–	–
COc1cc(C(c2c(O)c3ccccc3oc2=O)c2c(O)c3ccccc3oc2=O)cc(Br)c1O	53.3 µM	31.9 µM	48.4 µM	39.6 µM	29.8 µM	36.1 µM	26.8 µM	42.5 µM	32.3 µM	58.3 µM	–	–	–	–	–	–	–	–	–
CC(C)C(CC(=O)OCC(CO)OC(=O)CC(C(C)C)C(C)C)C(C)C (configuration not stated)	31.7 µM	30.9 µM	26.8 µM	30.8 µM	28.3 µM	28.4 µM	25.6 µM	35.2 µM	–	> 100 µM	–	–	–	–	–	–	–	–	–
NC(=O)c1csc(C2(O)COC(CO)C2O)n1 (configuration not stated)	> 100 µM	> 100 µM	> 100 µM	> 100 µM	> 100 µM	> 100 µM	> 100 µM	> 100 µM	> 100 µM	> 100 µM	–	–	–	–	–	–	–	–	–
COC(=O)Cc1ccc2c(cnn2-c2ccccc2)c1OC	> 10 µM	> 10 µM	> 10 µM	> 10 µM	> 10 µM	> 10 µM	> 10 µM	> 10 µM	> 10 µM	> 10 µM	–	–	–	–	–	–	–	–	–
Cc1[nH]c(=O)nc(NCCNCCO)c1C(=O)Nc1cccc2cc3ccccc3cc12	> 100 µM	> 100 µM	> 100 µM	> 100 µM	> 100 µM	> 100 µM	> 100 µM	> 100 µM	> 100 µM	> 100 µM	–	–	–	–	–	–	–	–	–
CN(C)CCCNC(=O)c1cc(NC(=O)c2cc(NC(=O)CCCn3c4ccccc4c4ccccc43)cn2C)cn1C	28 µM	> 62.2 µM	42.8 µM	37.8 µM	33.2 µM	28.3 µM	> 90.6 µM	> 79.9 µM	> 66.2 µM	4.82 µM	2.24 µM	–	–	–	–	–	–	–	–
CCCCSc1nsc(N(C(=O)c2ccccc2)C(=O)c2ccccc2)n1	> 100 µM	> 100 µM	> 100 µM	> 100 µM	> 100 µM	> 100 µM	69.5 µM	71.1 µM	> 100 µM	48.3 µM	–	–	–	–	–	–	–	–	–
O=S(=O)(c1cc(Cl)ccc1Cl)n1ccnc1	> 100 µM	> 100 µM	> 100 µM	74.1 µM	84.4 µM	> 100 µM	> 100 µM	> 100 µM	> 100 µM	70.9 µM	–	–	–	–	–	–	–	–	–
CCn1c2ccc(C(=O)CCCN3CCCCC3)cc2c2cc(C(=O)CCCN3CCCCC3)ccc21	49.9 µM	4.73 µM	3.9 µM	7.31 µM	20 µM	10.6 µM	4.05 µM	3.52 µM	6.6 µM	5.31 µM	–	–	–	–	–	–	–	–	–
Cc1cc(S(=O)(=O)Nc2n[nH]c(-c3ccccn3)n2)c(S)cc1Cl	56.2 µM	67.3 µM	54.2 µM	34.1 µM	> 100 µM	60.6 µM	72.4 µM	63.9 µM	30.4 µM	> 100 µM	–	–	–	–	–	–	–	–	–
CC1CCC2(NC1)OC1CC3C4CC=C5CC(OC6OC(CO)C(OC7OC(C)C(O)C(O)C7O)C(O)C6OC6OC(C)C(O)C(O)C6O)CCC5(C)C4CCC3(C)C1C2C (configuration not stated)	29 µM	9.37 µM	22.3 µM	26.5 µM	4.83 µM	28.3 µM	3.43 µM	9.07 µM	8.31 µM	27.8 µM	–	–	–	–	–	–	–	–	–

SMILES	TGI (T-47D breast)	TGI (U251 CNS)	TGI (SW-620 colon)	TGI (RXF 393 renal)	TGI (SN12C renal)	TGI (SNB-19 CNS)	TGI (NCI-H522 lung)	TGI (SK-MEL-2 melanoma)	TGI (OVCAR-8 ovarian)	TGI (SR leukemia)	GI50 (SR leukemia)	GI50 (T-47D breast)	GI50 (SW-620 colon)	GI50 (RXF 393 renal)	GI50 (SN12C renal)	GI50 (SNB-19 CNS)	GI50 (NCI-H522 lung)	GI50 (SK-MEL-2 melanoma)	GI50 (OVCAR-8 ovarian)
O=[N+]([O-])c1ccc(NC(=S)N=Nc2c(O)[nH]c3ccc([N+](=O)[O-])cc23)cc1	63.1 µM	50.8 µM	> 100 µM	37.1 µM	> 100 µM	69.3 µM	60.5 µM	35.8 µM	> 100 µM	> 100 µM	–	–	–	–	–	–	–	–	–
COC(=O)C1CCc2sc3ncnc(Nc4cn[nH]c4C(=O)Nc4ccc(CN5CCN(C)CC5)cc4)c3c21 (configuration not stated)	11.6 µM	–	1.58 µM	0.891 µM	> 100 µM	> 100 µM	1.63 µM	3.48 µM	75.1 µM	0.815 µM	0.285 µM	0.957 µM	0.354 µM	0.244 µM	0.345 µM	0.712 µM	0.304 µM	0.692 µM	0.711 µM
O=C(CCc1cc(O)cc(O)c1)NCCCNC(=O)CCc1cc(O)cc(O)c1	> 100 µM	> 100 µM	> 100 µM	> 100 µM	> 100 µM	> 100 µM	> 100 µM	> 100 µM	> 100 µM	> 100 µM	–	–	–	–	–	–	–	–	–
COC(=O)C1(CCCCCBr)CCCCCCCCCCC1=O (configuration not stated)	> 100 µM	> 100 µM	> 100 µM	51.9 µM	> 100 µM	> 100 µM	47.5 µM	70.1 µM	> 100 µM	55.7 µM	–	–	–	–	–	–	–	–	–
COc1cc(C(=O)Oc2ccc3c(c2)OCO3)cc(OC)c1OC	> 100 µM	> 100 µM	> 100 µM	> 100 µM	> 100 µM	> 100 µM	> 100 µM	> 100 µM	> 100 µM	> 100 µM	–	–	–	–	–	–	–	–	–
C=C1C(OC2O[C@@H]3O[C@@]4(C)CC[C@H]5[C@H](C)CC[C@@H](C2=C)[C@@]35O4)O[C@@H]2O[C@@]3(C)CC[C@H]4[C@H](C)CC[C@@H]1[C@@]24O3 (some centres not stated)	> 50 µM	> 50 µM	> 50 µM	> 50 µM	> 50 µM	> 50 µM	> 50 µM	> 50 µM	–	> 50 µM	–	–	–	–	–	–	–	–	–
CC1(C)OCC2OC3([C@@H]4OC(C)(C)O[C@H]4CO)OC(C)(C)OC3C2O1 (some centres not stated)	> 100 µM	> 100 µM	> 100 µM	> 100 µM	> 100 µM	> 100 µM	–	> 100 µM	> 100 µM	> 100 µM	–	–	–	–	–	–	–	–	–
COc1ccc2nc(/C(N)=C\C#N)ccc2c1	76.2 µM	> 100 µM	> 100 µM	> 100 µM	> 100 µM	> 100 µM	> 100 µM	> 100 µM	> 100 µM	> 100 µM	–	–	–	–	–	–	–	–	–
Cn1c(=O)c2c(nc3n(Cc4ccccc4)c(=O)c(NCCCBr)cn23)n(C)c1=O	> 100 µM	> 100 µM	> 100 µM	> 100 µM	> 100 µM	> 100 µM	> 100 µM	> 100 µM	> 100 µM	> 100 µM	–	–	–	–	–	–	–	–	–
CC(=O)OCC1OC(n2c(-c3ccccc3)c(N=Nc3ccccc3)c(C)c(C#N)c2=S)C(OC(C)=O)C(OC(C)=O)C1OC(C)=O (configuration not stated)	> 100 µM	> 100 µM	> 100 µM	> 100 µM	> 100 µM	> 100 µM	–	> 100 µM	–	> 100 µM	–	–	–	–	–	–	–	–	–
COC(=O)C1C(C(=O)OC)C2(OC(c3ccc(Cl)cc3)=CC2=O)C12OC(c1ccc(Cl)cc1)=CC2=O (configuration not stated)	63.3 µM	> 100 µM	> 100 µM	33.2 µM	52.8 µM	> 100 µM	36.1 µM	55.3 µM	–	10.9 µM	–	–	–	–	–	–	–	–	–
Nc1nc(Cl)cc(NCC2(O)CC2)n1	> 100 µM	> 100 µM	> 100 µM	> 100 µM	> 100 µM	> 100 µM	> 100 µM	> 100 µM	> 100 µM	> 100 µM	–	–	–	–	–	–	–	–	–
CSC(SC)=C(C(=O)O)P(=O)(O)O	> 100 µM	–	> 100 µM	> 100 µM	> 100 µM	> 100 µM	> 100 µM	> 100 µM	> 100 µM	> 100 µM	–	–	–	–	–	–	–	–	–
CS(=O)(=O)Nc1ccc2c(c1)N(S(C)(=O)=O)CC2CCl (configuration not stated)	> 100 µM	> 100 µM	> 100 µM	> 100 µM	> 100 µM	–	> 100 µM	> 100 µM	> 100 µM	> 100 µM	–	–	–	–	–	–	–	–	–
Cc1c(CN2CCN(C)CC2)c(CN2CCN(C)CC2)c(C)n1-c1ccc(Cl)cc1	46.4 µM	> 100 µM	> 100 µM	> 100 µM	> 100 µM	> 100 µM	40.8 µM	46.2 µM	51.6 µM	40.8 µM	–	–	–	–	–	–	–	–	–
C[C@]12CCC(=O)[C@@H](CCC3=CC(=O)C=CC3=O)[C@@H]1CCC2=O	> 81.7 µM	> 47.3 µM	> 58.7 µM	5.43 µM	> 100 µM	> 100 µM	5.64 µM	27.1 µM	> 69.5 µM	> 100 µM	–	–	–	–	–	–	–	–	–
COc1cc(CC(C)NC(C)=O)cc(OC)c1 (configuration not stated)	> 100 µM	> 100 µM	> 100 µM	> 100 µM	> 100 µM	> 100 µM	> 100 µM	> 100 µM	> 100 µM	> 100 µM	–	–	–	–	–	–	–	–	–
